What was measured:
Format in all cases: functional, cell-based
HeLa = experiment: Antiproliferative activity against human HeLa cells assessed as inhibition of cell growth by SRB assay
ECa-109 cell line = experiment: Antiproliferative activity against human EC109 cells assessed as inhibition of cell growth by SRB assay
MGC-803 = experiment: Antiproliferative activity against human MGC-803 cells assessed as inhibition of cell growth by SRB assay
MCF7 = experiment: Antiproliferative activity against human MCF7 cells assessed as inhibition of cell growth by SRB assay

SMILES: O=C1C=C(N2CCCC2)C(=O)c2c1nc1n2[C@H]2OC[C@@H](O)[C@H]2OC1
- IC50 (HeLa): > 16 µM
- IC50 (ECa-109 cell line): > 16 µM
- IC50 (MGC-803): > 16 µM
- IC50 (MCF7): > 16 µM

SMILES: O=C1C(Nc2cccc(F)c2)=CC(=O)c2c1nc1n2[C@H]2OC[C@@H](O)[C@H]2OC1
- IC50 (HeLa): > 8 µM
- IC50 (ECa-109 cell line): 2.37 µM
- IC50 (MGC-803): 1.47 µM
- IC50 (MCF7): > 4 µM

SMILES: COc1ccc(NC2=CC(=O)c3c(nc4n3C[C@@H]([C@H](O)CO)OC4)C2=O)cc1
- IC50 (HeLa): 8.19 µM
- IC50 (ECa-109 cell line): 10.8 µM
- IC50 (MGC-803): 6.76 µM
- IC50 (MCF7): 11.4 µM

SMILES: O=C1C(NC2CC2)=CC(=O)c2c1nc1n2C[C@@H]([C@H](O)CO)OC1
- IC50 (HeLa): > 16 µM
- IC50 (ECa-109 cell line): > 16 µM
- IC50 (MGC-803): > 16 µM
- IC50 (MCF7): > 16 µM

SMILES: COc1cccc(NC2=CC(=O)c3c(nc4n3C[C@@H]([C@H](O)CO)OC4)C2=O)c1
- IC50 (HeLa): 6.14 µM
- IC50 (ECa-109 cell line): 6.95 µM
- IC50 (MGC-803): 3.58 µM
- IC50 (MCF7): 6.61 µM

SMILES: Cc1ccc(NC2=CC(=O)c3nc4n(c3C2=O)C[C@@H]([C@H](O)CO)OC4)cc1
- IC50 (HeLa): 3.9 µM
- IC50 (ECa-109 cell line): 7.98 µM
- IC50 (MGC-803): 4.82 µM
- IC50 (MCF7): 10.6 µM

SMILES: O=C1C(NC2CC2)=CC(=O)c2c1nc1n2[C@H]2OC[C@@H](O)[C@H]2OC1
- IC50 (HeLa): > 16 µM
- IC50 (MGC-803): > 4 µM
- IC50 (MCF7): > 16 µM

SMILES: O=C1C=C(Nc2ccc(C(F)(F)F)cc2)C(=O)c2c1nc1n2C[C@@H]([C@H](O)CO)OC1
- IC50 (HeLa): 6.09 µM
- IC50 (ECa-109 cell line): 6.73 µM
- IC50 (MGC-803): 6.52 µM
- IC50 (MCF7): 11.3 µM

SMILES: Cc1ccc(NC2=CC(=O)c3nc4n(c3C2=O)C[C@@H]([C@H](O)CO)OC4)cc1C
- IC50 (HeLa): 4.5 µM
- IC50 (ECa-109 cell line): 6.74 µM
- IC50 (MGC-803): 2.59 µM
- IC50 (MCF7): 6.26 µM

SMILES: CCCc1ccc(NC2=CC(=O)c3nc4n(c3C2=O)[C@H]2OC[C@@H](O)[C@H]2OC4)cc1
- IC50 (HeLa): 4.99 µM
- IC50 (ECa-109 cell line): > 4 µM
- IC50 (MGC-803): 1.56 µM
- IC50 (MCF7): 4.66 µM

SMILES: O=C1C=C(N2CCCCC2)C(=O)c2c1nc1n2[C@H]2OC[C@@H](O)[C@H]2OC1
- IC50 (HeLa): > 16 µM
- IC50 (ECa-109 cell line): > 8 µM
- IC50 (MGC-803): > 8 µM
- IC50 (MCF7): > 8 µM

SMILES: O=C1C=C(Nc2ccc(I)cc2)C(=O)c2c1nc1n2[C@H]2OC[C@@H](O)[C@H]2OC1
- IC50 (HeLa): 4.07 µM
- IC50 (ECa-109 cell line): 2.3 µM
- IC50 (MGC-803): 1.4 µM
- IC50 (MCF7): 2.23 µM

SMILES: Cc1ccc(NC2=CC(=O)c3c(nc4n3[C@H]3OC[C@@H](O)[C@H]3OC4)C2=O)cc1
- IC50 (HeLa): 6.59 µM
- IC50 (ECa-109 cell line): > 4 µM
- IC50 (MGC-803): 1.55 µM
- IC50 (MCF7): > 4 µM

SMILES: COc1ccccc1NC1=CC(=O)c2nc3n(c2C1=O)C[C@@H]([C@H](O)CO)OC3
- IC50 (HeLa): 6.42 µM
- IC50 (ECa-109 cell line): > 16 µM
- IC50 (MGC-803): 6.61 µM
- IC50 (MCF7): > 16 µM

SMILES: O=C1C(Nc2ccccc2F)=CC(=O)c2c1nc1n2[C@H]2OC[C@@H](O)[C@H]2OC1
- IC50 (HeLa): 9.82 µM
- IC50 (ECa-109 cell line): 2.66 µM
- IC50 (MGC-803): 2 µM
- IC50 (MCF7): > 4 µM

SMILES: COc1cccc(NC2=CC(=O)c3nc4n(c3C2=O)[C@H]2OC[C@@H](O)[C@H]2OC4)c1
- IC50 (HeLa): 4.28 µM
- IC50 (ECa-109 cell line): 7.62 µM
- IC50 (MGC-803): 1.78 µM
- IC50 (MCF7): > 4 µM

SMILES: O=C1C(Nc2ccccc2)=CC(=O)c2c1nc1n2C[C@@H]([C@H](O)CO)OC1
- IC50 (HeLa): 9.01 µM
- IC50 (ECa-109 cell line): 8.38 µM
- IC50 (MGC-803): 4.67 µM
- IC50 (MCF7): 6.91 µM

SMILES: O=C1C=C(Nc2cccc(Cl)c2)C(=O)c2c1nc1n2[C@H]2OC[C@@H](O)[C@H]2OC1
- IC50 (HeLa): 6.04 µM
- IC50 (ECa-109 cell line): 4.69 µM
- IC50 (MGC-803): 1.77 µM
- IC50 (MCF7): 4.72 µM

SMILES: CCN(CC)C1=CC(=O)c2c(nc3n2[C@H]2OC[C@@H](O)[C@H]2OC3)C1=O
- IC50 (HeLa): > 16 µM
- IC50 (MGC-803): > 16 µM
- IC50 (MCF7): > 16 µM

SMILES: O=C1C=C(Nc2ccccc2F)C(=O)c2c1nc1n2C[C@@H]([C@H](O)CO)OC1
- IC50 (HeLa): 5.86 µM
- IC50 (ECa-109 cell line): 7.88 µM
- IC50 (MGC-803): 3.24 µM
- IC50 (MCF7): 9.17 µM

SMILES: O=C1C(NC2CCCCC2)=CC(=O)c2c1nc1n2[C@H]2OC[C@@H](O)[C@H]2OC1
- IC50 (HeLa): > 16 µM
- IC50 (ECa-109 cell line): > 16 µM
- IC50 (MGC-803): > 8 µM
- IC50 (MCF7): > 16 µM

SMILES: CCc1ccc(NC2=CC(=O)c3c(nc4n3[C@H]3OC[C@@H](O)[C@H]3OC4)C2=O)cc1
- IC50 (HeLa): 6.51 µM
- IC50 (ECa-109 cell line): > 4 µM
- IC50 (MGC-803): 1.11 µM
- IC50 (MCF7): 8.99 µM

SMILES: O=C1C=C(Nc2cccc(F)c2)C(=O)c2c1nc1n2C[C@@H]([C@H](O)CO)OC1
- IC50 (HeLa): 6.59 µM
- IC50 (ECa-109 cell line): 7.93 µM
- IC50 (MGC-803): 4.46 µM
- IC50 (MCF7): > 16 µM

SMILES: COc1cccc(NC2=CC(=O)c3nc4n(c3C2=O)C[C@@H]([C@H](O)CO)OC4)c1
- IC50 (HeLa): 8.41 µM
- IC50 (ECa-109 cell line): > 16 µM
- IC50 (MGC-803): 9.26 µM
- IC50 (MCF7): > 16 µM

SMILES: O=C1C=C(Nc2ccc(I)cc2)C(=O)c2c1nc1n2C[C@@H]([C@H](O)CO)OC1
- IC50 (HeLa): 3.61 µM
- IC50 (ECa-109 cell line): 5.78 µM
- IC50 (MGC-803): 3.25 µM
- IC50 (MCF7): 7.69 µM

SMILES: O=C1C=C(Nc2cccc(F)c2)C(=O)c2c1nc1n2[C@H]2OC[C@@H](O)[C@H]2OC1
- IC50 (HeLa): 6.44 µM
- IC50 (ECa-109 cell line): 7.03 µM
- IC50 (MGC-803): 2.18 µM
- IC50 (MCF7): 5.5 µM

SMILES: O=C1C=C(N2CCC2)C(=O)c2c1nc1n2[C@H]2OC[C@@H](O)[C@H]2OC1
- IC50 (HeLa): > 16 µM
- IC50 (ECa-109 cell line): > 16 µM
- IC50 (MGC-803): > 16 µM
- IC50 (MCF7): > 16 µM

SMILES: O=C1C(N2CCOCC2)=CC(=O)c2c1nc1n2[C@H]2OC[C@@H](O)[C@H]2OC1
- IC50 (HeLa): > 16 µM
- IC50 (MGC-803): > 4 µM
- IC50 (MCF7): > 16 µM

SMILES: CCCc1ccc(NC2=CC(=O)c3c(nc4n3C[C@@H]([C@H](O)CO)OC4)C2=O)cc1
- IC50 (HeLa): 6.17 µM
- IC50 (ECa-109 cell line): 5.12 µM
- IC50 (MGC-803): 4.63 µM
- IC50 (MCF7): 9.44 µM

SMILES: O=C1C(Nc2cccc(Cl)c2)=CC(=O)c2c1nc1n2[C@H]2OC[C@@H](O)[C@H]2OC1
- IC50 (HeLa): 7.97 µM
- IC50 (ECa-109 cell line): 3.08 µM
- IC50 (MGC-803): 1.53 µM
- IC50 (MCF7): 2.97 µM

SMILES: CCc1ccc(NC2=CC(=O)c3nc4n(c3C2=O)C[C@@H]([C@H](O)CO)OC4)cc1
- IC50 (HeLa): 2.41 µM
- IC50 (ECa-109 cell line): 4.87 µM
- IC50 (MGC-803): 2.86 µM
- IC50 (MCF7): 6.73 µM

SMILES: O=C1C(N2CCCC2)=CC(=O)c2c1nc1n2[C@H]2OC[C@@H](O)[C@H]2OC1
- IC50 (HeLa): > 16 µM
- IC50 (ECa-109 cell line): > 16 µM
- IC50 (MGC-803): > 16 µM
- IC50 (MCF7): > 16 µM

SMILES: O=C1C(Nc2ccc(C(F)(F)F)cc2)=CC(=O)c2c1nc1n2C[C@@H]([C@H](O)CO)OC1
- IC50 (HeLa): 7.18 µM
- IC50 (ECa-109 cell line): 4.03 µM
- IC50 (MGC-803): 2.02 µM
- IC50 (MCF7): 4.28 µM

SMILES: Cc1ccc(NC2=CC(=O)c3c(nc4n3[C@H]3OC[C@@H](O)[C@H]3OC4)C2=O)cc1C
- IC50 (HeLa): 4.32 µM
- IC50 (ECa-109 cell line): 4.09 µM
- IC50 (MGC-803): 1.05 µM
- IC50 (MCF7): 4.95 µM

SMILES: Cc1ccc(NC2=CC(=O)c3c(nc4n3C[C@@H]([C@H](O)CO)OC4)C2=O)cc1C
- IC50 (HeLa): 10.1 µM
- IC50 (ECa-109 cell line): > 16 µM
- IC50 (MGC-803): 5.46 µM
- IC50 (MCF7): > 16 µM

SMILES: O=C1C=C(Nc2cccc(Cl)c2)C(=O)c2c1nc1n2C[C@@H]([C@H](O)CO)OC1
- IC50 (HeLa): 4.06 µM
- IC50 (ECa-109 cell line): 11.3 µM
- IC50 (MGC-803): 5.27 µM
- IC50 (MCF7): 9.4 µM

SMILES: O=c1[nH]cc(F)c(=O)[nH]1 [FLUOROURACIL]
- IC50 (HeLa): 24.3 µM
- IC50 (ECa-109 cell line): 11.4 µM
- IC50 (MGC-803): 10.3 µM

SMILES: CN(C)C1=CC(=O)c2c(nc3n2[C@H]2OC[C@@H](O)[C@H]2OC3)C1=O
- IC50 (HeLa): > 16 µM
- IC50 (MGC-803): > 16 µM
- IC50 (MCF7): > 16 µM
